# Measured values from ChEMBL document CHEMBL5584238, “Psammaplin A analogues with modified disulfide bond targeting histone deacetylases: Synthesis and biological evaluation” (Eur J Med Chem, 2024).
# Activity calls are given as the source filed them. No cut-off for these calls is given here.
# Experiments:
# HCT-116 [1] = assay: Induction of cell cycle arrest in human HCT-116 cells assessed as accumulation of cells at G1 phase at 1 uM after 24 hrs by PI staining based flow cytometry analysis (reference value: 37.9%); assay type: functional
# HCT-116 [2] = assay: Induction of apoptosis in human HCT-116 cells assessed as viable cells at 4 uM incubated for 24 hrs by Annexin V-FITC/PI staining based flow cytometry analysis ( Rvb = 92.2%); assay type: functional; conditions: read-out: Activity
# HCT-116 [3] = assay: Induction of apoptosis in human HCT-116 cells assessed as viable cells at 2 uM incubated for 24 hrs by Annexin V-FITC/PI staining based flow cytometry analysis ( Rvb = 92.2%); assay type: functional; conditions: read-out: Activity
# HCT-116 [4] = assay: Induction of apoptosis in human HCT-116 cells assessed as early apoptotic cells at 2 uM incubated for 24 hrs by Annexin V-FITC/PI staining based flow cytometry analysis ( Rvb = 2.36%); assay type: functional
# HCT-116 [5] = assay: Induction of apoptosis in human HCT-116 cells assessed as early apoptotic cells at 4 uM incubated for 24 hrs by Annexin V-FITC/PI staining based flow cytometry analysis ( Rvb = 2.36%); assay type: functional
# HCT-116 [6] = assay: Induction of cell cycle arrest in human HCT-116 cells assessed as accumulation of cells at G2/M phase at 1 uM after 24 hrs by PI staining based flow cytometry analysis (reference value: 9.3%); assay type: functional
# HCT-116 [7] = assay: Induction of cell cycle arrest in human HCT-116 cells assessed as accumulation of cells at S phase at 2 uM after 24 hrs by PI staining based flow cytometry analysis (reference value: 52.8%); assay type: functional
# HCT-116 [8] = assay: Antitumor activity against human HCT-116 cells xenografted with BALB/c nude mouse assessed as tumor growth inhibition at 10 mg/kg, ip administered every 2 days for 26 days; assay type: functional; conditions: HCT-116, 624 h, time 26 day, read-out: TGI
# [9] = biological target: T1, Class 1 histone deacetylase (Homo sapiens) (UniProt Q13547+O15379+Q92769+Q9BY41); assay: Inhibition of class 1 HDACs in human HCT-116 cells assessed as upregulation of acetylated alpha-H3 level at 1 uM incubated for 24 hrs by Western blotting analysis; assay type: cell-based
# T1 sequence (O15379 whole entry, looked up): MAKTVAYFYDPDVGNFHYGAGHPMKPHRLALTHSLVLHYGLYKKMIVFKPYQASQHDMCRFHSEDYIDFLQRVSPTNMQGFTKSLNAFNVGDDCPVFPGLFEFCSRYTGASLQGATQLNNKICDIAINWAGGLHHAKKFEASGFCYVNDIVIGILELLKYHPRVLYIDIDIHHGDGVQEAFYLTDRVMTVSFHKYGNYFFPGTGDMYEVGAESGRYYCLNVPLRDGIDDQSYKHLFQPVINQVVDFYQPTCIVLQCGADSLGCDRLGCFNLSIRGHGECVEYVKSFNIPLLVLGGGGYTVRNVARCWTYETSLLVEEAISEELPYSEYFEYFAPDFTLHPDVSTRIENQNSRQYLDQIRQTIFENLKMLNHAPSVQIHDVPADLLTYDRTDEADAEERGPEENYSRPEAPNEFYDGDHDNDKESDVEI
# T1 sequence (Q13547 whole entry, looked up): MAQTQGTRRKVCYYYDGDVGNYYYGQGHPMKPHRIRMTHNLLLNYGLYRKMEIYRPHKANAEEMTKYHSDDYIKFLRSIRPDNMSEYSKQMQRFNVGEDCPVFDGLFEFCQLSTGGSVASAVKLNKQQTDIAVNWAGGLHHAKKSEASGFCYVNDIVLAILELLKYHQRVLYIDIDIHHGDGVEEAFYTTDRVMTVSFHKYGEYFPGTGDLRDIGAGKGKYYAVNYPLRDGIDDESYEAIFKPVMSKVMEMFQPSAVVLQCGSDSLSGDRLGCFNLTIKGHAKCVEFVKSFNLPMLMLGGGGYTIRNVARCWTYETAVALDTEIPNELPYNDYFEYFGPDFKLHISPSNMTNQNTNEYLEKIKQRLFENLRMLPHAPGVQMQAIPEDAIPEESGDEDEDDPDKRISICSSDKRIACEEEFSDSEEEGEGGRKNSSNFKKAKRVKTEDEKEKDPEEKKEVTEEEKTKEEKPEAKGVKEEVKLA
# T1 sequence (Q92769 whole entry, looked up): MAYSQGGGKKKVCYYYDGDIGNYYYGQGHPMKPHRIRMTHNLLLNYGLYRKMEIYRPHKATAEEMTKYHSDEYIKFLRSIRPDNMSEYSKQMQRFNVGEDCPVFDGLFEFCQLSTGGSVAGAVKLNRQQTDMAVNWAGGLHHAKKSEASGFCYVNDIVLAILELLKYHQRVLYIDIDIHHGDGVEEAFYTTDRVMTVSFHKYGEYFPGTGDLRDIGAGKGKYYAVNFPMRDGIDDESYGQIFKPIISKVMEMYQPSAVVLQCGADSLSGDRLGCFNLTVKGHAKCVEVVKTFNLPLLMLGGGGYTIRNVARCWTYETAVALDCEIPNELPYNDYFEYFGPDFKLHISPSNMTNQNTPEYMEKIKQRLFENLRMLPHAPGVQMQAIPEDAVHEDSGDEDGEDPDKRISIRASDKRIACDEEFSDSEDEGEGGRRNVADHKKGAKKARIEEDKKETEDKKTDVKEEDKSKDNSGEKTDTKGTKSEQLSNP
# T1 sequence (Q9BY41 whole entry, looked up): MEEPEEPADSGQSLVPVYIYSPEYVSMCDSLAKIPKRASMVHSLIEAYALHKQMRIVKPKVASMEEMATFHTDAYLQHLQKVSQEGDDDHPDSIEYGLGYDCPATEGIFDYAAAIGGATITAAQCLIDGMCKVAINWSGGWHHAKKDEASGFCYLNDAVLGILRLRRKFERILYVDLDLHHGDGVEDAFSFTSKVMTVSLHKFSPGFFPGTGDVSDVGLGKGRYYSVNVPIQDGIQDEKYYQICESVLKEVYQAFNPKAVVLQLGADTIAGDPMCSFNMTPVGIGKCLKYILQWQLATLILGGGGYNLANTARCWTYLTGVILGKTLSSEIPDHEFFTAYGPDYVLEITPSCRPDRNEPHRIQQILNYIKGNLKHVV
# HCT-116 [10] = assay: Induction of cell cycle arrest in human HCT-116 cells assessed as accumulation of cells at G1 phase at 2 uM after 24 hrs by PI staining based flow cytometry analysis (reference value: 37.9%); assay type: functional
# HCT-116 [11] = assay: Induction of apoptosis in human HCT-116 cells assessed as necrotic cells at 2 uM incubated for 24 hrs by Annexin V-FITC/PI staining based flow cytometry analysis ( Rvb = 0.24%); assay type: functional
# Histone deacetylase 1 = Histone deacetylase 1 (Homo sapiens, UniProt Q13547); assay: Inhibition of recombinant human HDAC1 using Boc-Lys(Ac)-AMC as substrate preincubated for 1 hr followed by substrate addition and measured after 2 hrs by microplate reader assay
# Histone deacetylase 1, sequence (Q13547 whole entry): as the sequence (Q13547 whole entry, looked up) above
# HCT-116 [12] = assay: Induction of apoptosis in human HCT-116 cells assessed as late apoptotic cells at 4 uM incubated for 24 hrs by Annexin V-FITC/PI staining based flow cytometry analysis ( Rvb = 5.32%); assay type: functional
# HCT-116 [13] = assay: Induction of cell cycle arrest in human HCT-116 cells assessed as accumulation of cells at G2/M phase at 2 uM after 24 hrs by PI staining based flow cytometry analysis (reference value: 9.3%); assay type: functional
# HCT-116 [14] = assay: Induction of apoptosis in human HCT-116 cells assessed as late apoptotic cells at 2 uM incubated for 24 hrs by Annexin V-FITC/PI staining based flow cytometry analysis ( Rvb = 5.32%); assay type: functional
# HCT-116 [15] = assay: Induction of apoptosis in human HCT-116 cells assessed as necrotic cells at 4 uM incubated for 24 hrs by Annexin V-FITC/PI staining based flow cytometry analysis ( Rvb = 0.24%); assay type: functional
# HCT-116 [16] = assay: Induction of cell cycle arrest in human HCT-116 cells assessed as accumulation of cells at S phase at 1 uM after 24 hrs by PI staining based flow cytometry analysis (reference value: 52.8%); assay type: functional
# [17] = biological target: T2, Protein deacetylase HDAC6 (Homo sapiens) (UniProt Q9UBN7); assay: Inhibition of HDAC6 in human HCT-116 cells assessed as upregulation of acetylated alpha-tubulin level at 1 uM incubated for 24 hrs by Western blotting analysis; assay type: cell-based
# T2 sequence (whole entry): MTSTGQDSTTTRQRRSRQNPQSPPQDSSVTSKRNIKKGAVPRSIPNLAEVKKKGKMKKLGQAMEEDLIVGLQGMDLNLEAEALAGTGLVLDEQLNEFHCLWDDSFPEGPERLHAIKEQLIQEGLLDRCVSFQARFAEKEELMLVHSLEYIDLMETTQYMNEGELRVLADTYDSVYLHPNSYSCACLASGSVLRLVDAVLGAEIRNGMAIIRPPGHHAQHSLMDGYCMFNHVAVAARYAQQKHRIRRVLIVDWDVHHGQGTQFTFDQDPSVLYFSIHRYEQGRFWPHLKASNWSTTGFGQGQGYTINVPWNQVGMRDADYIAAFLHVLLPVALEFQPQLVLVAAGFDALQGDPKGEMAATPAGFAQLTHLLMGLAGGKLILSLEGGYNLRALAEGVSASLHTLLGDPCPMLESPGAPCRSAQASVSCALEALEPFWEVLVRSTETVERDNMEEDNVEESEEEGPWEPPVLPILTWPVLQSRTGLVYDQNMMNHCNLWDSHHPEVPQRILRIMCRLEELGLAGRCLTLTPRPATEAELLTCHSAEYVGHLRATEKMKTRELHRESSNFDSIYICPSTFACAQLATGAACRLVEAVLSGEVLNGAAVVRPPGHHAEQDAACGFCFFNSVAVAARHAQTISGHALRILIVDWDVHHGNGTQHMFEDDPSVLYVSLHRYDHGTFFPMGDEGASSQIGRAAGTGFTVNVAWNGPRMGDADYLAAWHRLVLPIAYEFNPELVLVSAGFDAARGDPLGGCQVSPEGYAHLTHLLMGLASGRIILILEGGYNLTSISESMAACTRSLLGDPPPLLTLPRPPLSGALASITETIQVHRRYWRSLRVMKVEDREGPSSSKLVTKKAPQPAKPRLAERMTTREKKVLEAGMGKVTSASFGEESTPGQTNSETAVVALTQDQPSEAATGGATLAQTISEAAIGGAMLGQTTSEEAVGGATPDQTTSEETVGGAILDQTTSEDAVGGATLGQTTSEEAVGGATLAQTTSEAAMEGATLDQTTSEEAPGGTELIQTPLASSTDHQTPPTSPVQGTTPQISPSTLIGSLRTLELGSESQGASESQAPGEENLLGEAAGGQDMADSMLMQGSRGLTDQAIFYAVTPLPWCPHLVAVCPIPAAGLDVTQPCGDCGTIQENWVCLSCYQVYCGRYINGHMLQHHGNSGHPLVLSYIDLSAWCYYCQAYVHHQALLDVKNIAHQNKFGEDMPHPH
# HCT-116 [18] = assay: Antiproliferative activity against human HCT-116 cells incubated for 48 hrs by MTT assay; assay type: functional, cell-based; conditions: HCT-116, 48 h
# HCT-116 [19] = assay: Induction of apoptosis in human HCT-116 cells assessed as necrotic cells at 0.2 uM incubated for 24 hrs by Annexin V-FITC/PI staining based flow cytometry analysis ( Rvb = 0.24%); assay type: functional
# HCT-116 [20] = assay: Induction of apoptosis in human HCT-116 cells assessed as early apoptotic cells at 0.4 uM incubated for 24 hrs by Annexin V-FITC/PI staining based flow cytometry analysis ( Rvb = 2.36%); assay type: functional
# HCT-116 [21] = assay: Induction of cell cycle arrest in human HCT-116 cells assessed as accumulation of cells at G1 phase at 0.1 uM after 24 hrs by PI staining based flow cytometry analysis (reference value: 37.9%); assay type: functional
# [22] = biological target: T1, Class 1 histone deacetylase (Homo sapiens); assay: Inhibition of class 1 HDACs in human HCT-116 cells assessed as upregulation of acetylated alpha-H3 level incubated for 24 hrs by Western blotting analysis; assay type: cell-based; conditions: dose 0.5-4 µM
# HCT-116 [23] = assay: Induction of apoptosis in human HCT-116 cells assessed as necrotic cells at 0.4 uM incubated for 24 hrs by Annexin V-FITC/PI staining based flow cytometry analysis ( Rvb = 0.24%); assay type: functional
# HCT-116 [24] = assay: Induction of cell cycle arrest in human HCT-116 cells assessed as accumulation of cells at G2/M phase at 0.2 uM after 24 hrs by PI staining based flow cytometry analysis (reference value: 9.3%); assay type: functional
# HCT-116 [25] = assay: Induction of apoptosis in human HCT-116 cells assessed as viable cells at 0.2 uM incubated for 24 hrs by Annexin V-FITC/PI staining based flow cytometry analysis ( Rvb = 92.2%); assay type: functional; conditions: read-out: Activity
# HCT-116 [26] = assay: Induction of cell cycle arrest in human HCT-116 cells assessed as accumulation of cells at G1 phase at 0.4 uM after 24 hrs by PI staining based flow cytometry analysis (reference value: 37.9%); assay type: functional
# HCT-116 [27] = assay: Induction of cell cycle arrest in human HCT-116 cells assessed as accumulation of cells at G2/M phase at 0.4 uM after 24 hrs by PI staining based flow cytometry analysis (reference value: 9.3%); assay type: functional
# EBC-1 = assay: Antiproliferative activity against human EBC-1 cells incubated for 48 hrs by MTT assay; assay type: functional, cell-based; conditions: EBC-1, 48 h
# HCT-116 [28] = assay: Induction of apoptosis in human HCT-116 cells assessed as early apoptotic cells at 0.2 uM incubated for 24 hrs by Annexin V-FITC/PI staining based flow cytometry analysis ( Rvb = 2.36%); assay type: functional
# HCT-116 [29] = assay: Induction of apoptosis in human HCT-116 cells assessed as viable cells at 0.4 uM incubated for 24 hrs by Annexin V-FITC/PI staining based flow cytometry analysis ( Rvb = 92.2%); assay type: functional; conditions: read-out: Activity
# HCT-116 [30] = assay: Induction of cell cycle arrest in human HCT-116 cells assessed as accumulation of cells at S phase at 0.1 uM after 24 hrs by PI staining based flow cytometry analysis (reference value: 52.8%); assay type: functional
# [31] = biological target: T2, Protein deacetylase HDAC6 (Homo sapiens); assay: Inhibition of HDAC6 in human HCT-116 cells assessed as upregulation of acetylated alpha-tubulin level incubated for 24 hrs by Western blotting analysis; assay type: cell-based; conditions: dose 0.5-4 µM
# HCT-116 [32] = assay: Induction of cell cycle arrest in human HCT-116 cells assessed as accumulation of cells at G1 phase at 0.2 uM after 24 hrs by PI staining based flow cytometry analysis (reference value: 37.9%); assay type: functional
# HCT-116 [33] = assay: Induction of cell cycle arrest in human HCT-116 cells assessed as accumulation of cells at G2/M phase at 0.1 uM after 24 hrs by PI staining based flow cytometry analysis (reference value: 9.3%); assay type: functional
# HCT-116 [34] = assay: Induction of cell cycle arrest in human HCT-116 cells assessed as accumulation of cells at S phase at 0.2 uM after 24 hrs by PI staining based flow cytometry analysis (reference value: 52.8%); assay type: functional
# HCT-116 [35] = assay: Induction of apoptosis in human HCT-116 cells assessed as late apoptotic cells at 0.2 uM incubated for 24 hrs by Annexin V-FITC/PI staining based flow cytometry analysis ( Rvb = 5.32%); assay type: functional
# NCI-H1581 = assay: Antiproliferative activity against human NCI-H1581 cells incubated for 48 hrs by MTT assay; assay type: functional, cell-based; conditions: NCI-H1581, 48 h
# HCT-116 [36] = assay: Induction of cell cycle arrest in human HCT-116 cells assessed as accumulation of cells at S phase at 0.4 uM after 24 hrs by PI staining based flow cytometry analysis (reference value: 52.8%); assay type: functional
# HCT-116 [37] = assay: Induction of apoptosis in human HCT-116 cells assessed as late apoptotic cells at 0.4 uM incubated for 24 hrs by Annexin V-FITC/PI staining based flow cytometry analysis ( Rvb = 5.32%); assay type: functional
structure (smiles),measurement,setting,value
O=C(NCCSSCCNC(=O)/C(Cc1ccc(O)c(Br)c1)=N/O)/C(Cc1ccc(O)c(Br)c1)=N/O [PSAMMAPLIN A],Activity,HCT-116 [1],45.72%
same,viability at 4 µM,HCT-116 [2],42.5%
same,viability at 2 µM,HCT-116 [3],74.8%
same,Activity,HCT-116 [4],9.74%
same,Activity,HCT-116 [5],16.2%
same,Activity,HCT-116 [6],13.05%
same,Activity,HCT-116 [7],28.56%
same,inhibition in vivo at 10 mg/kg,HCT-116 [8],36.1%
same,inhibition,[9],Active
same,Activity,HCT-116 [10],55.34%
same,Activity,HCT-116 [11],0.67%
same,IC50,Histone deacetylase 1,26 nM
same,Activity,HCT-116 [12],40.3%
same,Activity,HCT-116 [13],16.09%
same,Activity,HCT-116 [14],14.8%
same,Activity,HCT-116 [15],1.06%
same,Activity,HCT-116 [16],41.24%
same,inhibition,[17],inactive
same,IC50,HCT-116 [18],3050 nM
O=C(NCC[Se][Se]CCNC(=O)/C(Cc1ccc(Br)o1)=N/O)/C(Cc1ccc(Br)o1)=N/O,Activity,HCT-116 [19],0.001%
same,Activity,HCT-116 [20],17.8%
same,Activity,HCT-116 [21],35.83%
same,inhibition,[22],Dose-Dependent Effect
same,Activity,HCT-116 [23],0%
same,inhibition,[9],Active
same,Activity,HCT-116 [24],17.28%
same,viability at 0.2 µM,HCT-116 [25],80.6%
same,Activity,HCT-116 [26],56.35%
same,Activity,HCT-116 [27],19.11%
same,IC50,EBC-1,620 nM
same,Activity,HCT-116 [28],11.4%
same,viability at 0.4 µM,HCT-116 [29],70.3%
same,Activity,HCT-116 [30],45.66%
same,inhibition,[31],Dose-Dependent Effect
same,Activity,HCT-116 [32],51.33%
same,Activity,HCT-116 [33],18.51%
same,Activity,HCT-116 [34],31.39%
same,inhibition,[17],Active
same,Activity,HCT-116 [35],18.2%
same,IC50,NCI-H1581,480 nM
same,Activity,HCT-116 [36],24.54%
same,Activity,HCT-116 [37],11.9%
same,IC50,HCT-116 [18],290 nM
